{"source": "patent US6452005B1", "about": "“JAK-3 inhibitors for treating allergic disorders” (Parker Hughes Institute, priority 1999, dated 2002)", "key": {"[1]": {"tested_on": "BALB/c mice", "assay": "IgE/antigen-induced active systemic anaphylaxis model", "type": "in vivo", "details": "BSA-sensitized mice, two doses of 45 mg/kg before challenge; 8 of 15", "procedure": "FIG. 14E is a graph showing results of a study of the effect of JAK3 inhibitor WHI-P131 on fatal anaphylaxis in mice. BALB/c mice were sensitized with 100 mg/kg bovine serum albumin in 200 μl of the adjuvant aluminum hydroxide gel (Reheis Inc., Berkeley, N.J.), which favors the production of IgE in response to the presented antigen. Ten days later, mice were treated with two doses of WHI-P131 (45 mg/kg) or vehicle 30 minutes apart and then challenged with an i.v. injection of the 10 mg/kg BSA. Cumulative proportions of mice surviving anaphylaxis-free are shown according to the time after the antigen challenge.\nTo induce passive systemic anaphylaxis, BALB/c mice were sensitized with […] DNP-IgE intravenously. At 24 hours DNP-BSA (2 mg) was administered intravenously with 0.5% Evans blue (200 μl). For assessment of vascular leak, animals were sacrificed 30 minutes after the antigen challenge and their foot pads were examined for blue coloration. Histamine levels in plasma were measured 5 minutes after the antigen challenge. […] For histopathologic evaluation of tissue mast cell degranulation, ears of mice were removed 1 hour after the DNP-BSA injection and fixed in 10 percent buffered formalin. […]"}, "[2]": {"biological_target": "T1, IRK (Homo sapiens, UniProt P06213)", "T1 construct": "IRK was immunoprecipitated from the lysates with an anti-IRb antibody; endogenous in cells; host or cells: HepG2 human hepatoma cells, insulin-stimulated", "T1 sequence (P06213 763-1382 limits assumed)": "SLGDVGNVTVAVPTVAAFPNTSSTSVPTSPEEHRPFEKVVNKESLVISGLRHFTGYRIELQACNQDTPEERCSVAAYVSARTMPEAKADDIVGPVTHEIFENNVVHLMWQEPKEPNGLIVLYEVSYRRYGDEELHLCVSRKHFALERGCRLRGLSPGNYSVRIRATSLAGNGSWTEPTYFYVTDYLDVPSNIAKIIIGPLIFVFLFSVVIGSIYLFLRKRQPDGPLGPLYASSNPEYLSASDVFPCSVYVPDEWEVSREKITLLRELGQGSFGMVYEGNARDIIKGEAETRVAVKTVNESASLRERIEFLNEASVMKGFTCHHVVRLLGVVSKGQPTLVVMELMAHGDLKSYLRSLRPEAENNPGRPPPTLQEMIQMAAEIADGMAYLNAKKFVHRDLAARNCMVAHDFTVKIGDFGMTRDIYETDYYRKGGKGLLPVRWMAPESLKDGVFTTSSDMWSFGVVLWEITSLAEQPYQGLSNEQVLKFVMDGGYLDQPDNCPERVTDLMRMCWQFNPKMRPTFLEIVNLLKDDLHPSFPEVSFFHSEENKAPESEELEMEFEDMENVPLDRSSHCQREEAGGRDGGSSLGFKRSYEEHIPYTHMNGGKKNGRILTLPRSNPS", "T1 sequence (P06213 28-758 partner limits assumed)": "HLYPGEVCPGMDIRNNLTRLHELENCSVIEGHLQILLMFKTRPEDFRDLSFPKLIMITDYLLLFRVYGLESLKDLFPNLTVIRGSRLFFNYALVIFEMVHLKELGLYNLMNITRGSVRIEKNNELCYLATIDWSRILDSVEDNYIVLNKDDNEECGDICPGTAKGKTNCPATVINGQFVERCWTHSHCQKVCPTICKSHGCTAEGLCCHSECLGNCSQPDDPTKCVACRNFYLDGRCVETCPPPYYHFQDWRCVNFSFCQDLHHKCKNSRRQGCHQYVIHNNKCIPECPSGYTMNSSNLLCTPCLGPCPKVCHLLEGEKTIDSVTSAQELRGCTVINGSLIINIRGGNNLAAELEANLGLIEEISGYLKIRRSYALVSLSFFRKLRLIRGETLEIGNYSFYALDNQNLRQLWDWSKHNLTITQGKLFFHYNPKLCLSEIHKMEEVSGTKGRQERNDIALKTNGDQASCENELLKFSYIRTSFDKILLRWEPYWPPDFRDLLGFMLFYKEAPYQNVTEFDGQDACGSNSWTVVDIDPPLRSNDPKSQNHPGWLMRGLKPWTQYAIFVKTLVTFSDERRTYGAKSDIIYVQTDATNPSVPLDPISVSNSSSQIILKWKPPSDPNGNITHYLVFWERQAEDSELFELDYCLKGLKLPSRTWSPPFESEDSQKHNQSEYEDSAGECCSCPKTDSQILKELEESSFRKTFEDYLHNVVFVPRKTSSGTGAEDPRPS", "assay": "Immune complex kinase assay, IRK from HepG2 cells", "type": "biochemical", "details": "concentrations as high as 350 μM", "procedure": "For insulin receptor kinase (IRK) assays, HepG2 human hepatoma cells grown to approximately 80% confluency were washed once with serum-free DMEM and starved for 3 hours at 37° in a CO2 incubator. Subsequently, cells were stimulated with insulin (Eli Lilly, cat# CP-410;10 units/ml/10×10^6 cells) for 10 minutes at room temperature. Following this IRK activation step, cells were washed once with serum free medium, lysed in NP-40 buffer and IRK was immunoprecipitated from the lysates with an anti-IRb antibody (Santa Cruz, Cat.# sc-711, polyclonal IgG). Prior to performing the immune complex kinase assays, the beads were equilibrated with the kinase buffer (30 mM Hepes pH 7.4, 30 mM NaCl, 8 mM MgCl2, 4 mM MnCl2)."}, "[3]": {"tested_on": "mouse bone marrow mast cells", "details": "data not shown"}, "[4]": {"tested_on": "human mast cells", "details": "IgE-sensitized, anti-IgE challenge, 30 minutes exposure", "experimental": "Human Mast Cells: Cells from human fetal livers (16 to 21 weeks of gestational age) were cultured for 5 weeks in the presence of 50 ng/ml rhSCF, 2 ng/ml rhlL-4 (Xia et. al., 1997, J. Immunol., 159:2911-2921). Culture medium was replaced with fresh medium once a week for the first 2 weeks and twice a week thereafter. At the end of the 5 weeks, the fetal liver derived cell cultures contained>70% mast cells, based on tryptase staining (Irani et. al., 1989, J. Histochem. Cytochem, 37:1509-1515).\nFetal liver derived human mast cells were resuspended in tyrode buffer containing calcium and magnesium and challenged with anti-FcεRI antibody 22E7 for 15 minutes. […]\nLeukotriene (LT) C4 levels were estimated in cell free supernatants by immunoassay (Malaviya et. al., 1993, J. Biol. Chem., 268:4939-4944). […] Tryptase levels were quantitated in cell free supernatants and pellets of fetal liver derived human mast cells as has been described in detail (Xia et. al., 1997, J. Immunol., 159:2911-2921).\nFetal liver derived human mast cells were cultured in presence of SCF and IL-4 for 5 weeks. […] The FcεRI receptors of fetal liver derived human mast cells were crosslinked with anti-IgE and the resulting mast cell degranulation (i.e., β-tryptase) (Xia et. al., 1997, J. Immunol., 159:2911-2921) and LTC4 release (Malaviya et. al., 1993, J. Biol. Chem., 268:4939-4944) were quantitated."}, "[5]": {"tested_on": "RBL-2H3 mast cells", "assay": "IgE/antigen-induced activation (cell spreading, microtubule organization) by confocal microscopy", "type": "cell-based, rat", "details": "30 μM, two hour incubation", "procedure": "RBL-2H3 cells were cultured overnight on 22×22 mm coverslips at a cell density of 0.01×10^6/ml with […] DNP-IgE. Sensitized RBL-2H3 cells were then treated with 30 μM WHI-P131, vehicle, or control compounds WHI-P258 and WHI-P112 prior to challenge with DNP-BSA, as described in the legend of FIG. 4. After stimulation with DNP-BSA for 1 hour, cells were fixed in cold methanol for 15 minutes followed by permeabilization with PBS containing 0.1% Triton X-100. […] After washing 3 times with PBS-0.1% Triton X-100, cells were incubated with fluorescein labeled secondary antibody (Zymed, San Francisco, Calif.) for another 40 minutes. Cells were washed three times to remove unbound antibody. DNA labeling was performed by incubation of coverslips with toto-3 (Molecular Probes, Eugene, Oreg.) for 10 minutes. Excessive dye was washed with PBS-0.1% Triton X-100. Cells were visualized under MRC 1024 Laser Scanning Microscope after mounting with Vectashield (Vector laboratories, Inc, Burlingame, Calif.), as previously reported.\nConfocol Microscopy: Staining of mast cells with primary and secondary antibodies followed by confocal laser scanning microscopy was performed as previously described in detail (Uckun et. al., 1998, Clin. Cancer Res., 4:901-912). After staining with appropriate primary and secondary antibodies, cells were washed three times to remove unbound antibody. DNA labeling was performed by incubation of coverslips with toto-3 (Molecular Probes, Eugene, Oreg.) for 10 min. Excessive dye was washed with PBS-0.1% triton X-100. Cells were visualized under MRC 1024 Laser Scanning Microscope after mounting with Vectashield (Vector laboratories, Inc, Burlingame, Calif.).\nIn a systematic effort aimed at elucidating the biologic consequences of JAK3 inhibition in mast cells, we first sought to determine if the JAK3 inhibitor WHI-P131 could prevent the IgE receptor/FcεRI-mediated activation of mast cells. Since the IgE receptor/FcεRI-mediated activation of mast cells results in a distinct morphologic transformation with marked cell spreading due to membrane ruffling, microtubule formation and actin polymerization (Apgar, 1997), we evaluated the effects of WHI-P131 on the activation-associated transformation of shape and surface topography of RBL-2H3 mast cells using confocal laser scanning microscopy (Ghosh et. al., 1998)."}, "[6]": {"tested_on": "BALB/c mice", "assay": "Passive systemic anaphylaxis model", "type": "in vivo", "details": "pretreated mice", "procedure": "FIG. 14B is a photograph showing plasma extravasation during systemic anaphylaxis, evaluated as described in the Examples.\nFIG. 14C is a photograph showing results of histopathologic evaluation of mast cell degranulation. Ears were removed 1 hour after the antigen challenge from vehicle treated as well as WHI-P131 treated mice. Formalin-fixed thin sections (3-5 μm) of ears from were stained with Avidin-FITC.\nFIG. 4D is a graph showing blood histamine levels of sensitized mice analyzed after antigen challenge. Blood was collected by retro-orbital bleeding and histamine levels were measured by ELISA. Histamine levels are expressed as nM. The histamine levels in the blood of PBS treated mice and IgE/antigen stimulated mice was 493±131 and 7527±2102 nM respectively. The results are the mean±SEM values; n=3.\nTo induce passive systemic anaphylaxis, BALB/c mice were sensitized with […] DNP-IgE intravenously. At 24 hours DNP-BSA (2 mg) was administered intravenously with 0.5% Evans blue (200 μl). For assessment of vascular leak, animals were sacrificed 30 minutes after the antigen challenge and their foot pads were examined for blue coloration. Histamine levels in plasma were measured 5 minutes after the antigen challenge. […] For histopathologic evaluation of tissue mast cell degranulation, ears of mice were removed 1 hour after the DNP-BSA injection and fixed in 10 percent buffered formalin. Processed thin sections (3-5 μm) were stained with Avidin-FITC (6.25 μg/ml) for 2 hours, washed with PBS to remove unbound dye and then mounted in buffered glycerol, 30 mM triethylenediamine, pH 8.6 (Malaviya et. al., 1994, J. Clin. Invest., 93:1645-1653). In the murine model for antigen induced active anaphylaxis, mice were sensitized with 2 mg BSA in 200 μl aluminum hydroxide gel (Reheis Inc., Berkeley, N.J.). Ten days later anaphylactic shock was induced by the i.v. injection of the animals with 200 μg BSA."}, "[7]": {"biological_target": "T2, BTK (Homo sapiens, UniProt Q06187)", "T2 construct": "made in house; host or cells: Sf21 insect cells, baculovirus", "T2 sequence (Q06187 whole entry, species assumed)": "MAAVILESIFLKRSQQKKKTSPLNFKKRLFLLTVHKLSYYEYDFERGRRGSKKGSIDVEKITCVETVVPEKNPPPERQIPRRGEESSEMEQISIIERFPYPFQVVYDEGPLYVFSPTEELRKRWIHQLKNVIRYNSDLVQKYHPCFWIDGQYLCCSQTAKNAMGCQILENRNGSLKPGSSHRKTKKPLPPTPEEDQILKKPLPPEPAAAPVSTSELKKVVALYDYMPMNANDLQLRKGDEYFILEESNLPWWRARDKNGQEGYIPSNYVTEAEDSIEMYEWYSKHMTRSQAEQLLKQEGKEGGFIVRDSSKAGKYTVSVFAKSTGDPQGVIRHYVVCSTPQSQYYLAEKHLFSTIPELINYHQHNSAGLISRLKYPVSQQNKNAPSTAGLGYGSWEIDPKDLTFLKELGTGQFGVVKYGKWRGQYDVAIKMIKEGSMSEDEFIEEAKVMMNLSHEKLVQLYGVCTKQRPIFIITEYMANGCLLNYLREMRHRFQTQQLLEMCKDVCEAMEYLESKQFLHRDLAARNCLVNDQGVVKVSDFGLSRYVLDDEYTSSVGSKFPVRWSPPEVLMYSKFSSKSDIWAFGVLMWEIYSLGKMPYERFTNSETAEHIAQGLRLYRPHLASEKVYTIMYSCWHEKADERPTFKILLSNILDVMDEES", "assay": "Immune complex kinase assay, BTK from Sf21 cells", "type": "biochemical", "details": "concentrations as high as 350 μM", "source_text": "Immune Complex Kinase Assays."}, "[8]": {"tested_on": "SYK", "assay": "SYK activation in RBL-2H3 mast cells after IgE receptor crosslinking", "details": "30 μM", "experimental": "Cells were lysed at the indicated time points, and SYK immune complexes were subjected to kinase assays in the presence of cold ATP followed by APT immunoblotting (upper panels in 8C & 8D) as well as to SYK Western blot analysis (lower panels in 8C & 8D).\nImmune-Complex Kinase Assays and Western Blot Analyses of Mast Cell Lysates. […] Cells were harvested, lysed (10 mM Tris pH 7.6, 100 mM NaCl, 1% Nonidet P-40, 10% glycerol, 50 mM NaF, 100 mM Na3VO4, 50 mg/ml phenylmethylsulfonyl fluoride, 10 mg/ml aprotonin, 10 mg/ml leupeptin), and the kinases were immunoprecipitated from the lysates, as reported (Uckun et. al., 1995, Science, 267:886-891; Uckun et. al., 1996, Science, 273:1096-1100). […] Immunoprecipitations, and immunoblotting using the ECL chemiluminescence detection system (Amersham Life Sciences) were conducted as described previously (Uckun et. al., 1996, Science, 273:1096-1100)."}}, "data": [{"molecule": "COc1cc2ncnc(Nc3ccc(O)cc3)c2cc1OC", "note": "[WHI-P131, 4-(4′-Hydroxylphenyl)-amino-6,7-dimethoxyquinazoline]", "values": [{"measurement": "mice surviving without any signs of anaphylaxis", "setting": "[1]", "value": 53, "unit": "%"}, {"measurement": "effect on enzymatic activity of IRK", "setting": "[2]", "value": "did not affect"}, {"measurement": "IgE receptor/FcεRI-mediated release of LTC4", "setting": "[3]", "value": "markedly reduced"}, {"measurement": "IgE receptor/FcεRI-mediated release of histamine", "setting": "[3]", "value": "markedly reduced"}, {"measurement": "release of LTC4", "setting": "[4]", "value": "inhibited"}, {"measurement": "release of β-tryptase", "setting": "[4]", "value": "inhibited"}, {"measurement": "IgE/antigen-induced mast cell activation (spreading and microtubule organization)", "setting": "[5]", "value": "prevented"}, {"measurement": "cells spindle shaped after IgE/antigen", "setting": "[5]", "value": 58, "unit": "%"}, {"measurement": "cells flattened after IgE/antigen", "setting": "[5]; 93% without drug", "value": 23, "unit": "%"}, {"measurement": "plasma histamine response", "setting": "[6]; 5 minutes after antigen challenge", "value": "substantially reduced"}, {"measurement": "blue coloring of foot pads (plasma exudation)", "setting": "[6]; 30 min after antigen challenge", "value": "no significant blue coloring"}, {"measurement": "fluorescence intensity of avidin-FITC stained tissue mast cells (degranulation)", "setting": "[6]; ears, after IgE/antigen challenge", "value": "no reduction in fluorescence intensity"}, {"measurement": "effect on enzymatic activity of BTK", "setting": "[7]", "value": "did not affect"}, {"measurement": "SYK activation after IgE receptor/FcεRI crosslinking", "setting": "[8]", "value": "did not prevent"}]}]}
